Results reported in ChEMBL document CHEMBL5356971, “Optimization of the Antibacterial Spectrum and the Developability Profile of the Novel-Class Natural Product Corramycin” (J Med Chem, 2023).

Legend:
[1] = Metabolic stability in mouse kidney assessed as parent compound remaining measured after 4 hrs by UPLC-MS analysis; format: ADME, tissue-based; conditions: read-out: Stability
[2] = Metabolic stability in mouse lung assessed as parent compound remaining measured after 4 hrs by UPLC-MS analysis; format: ADME, tissue-based; conditions: mouse lung, read-out: Stability
[3] = Metabolic stability in mouse lung assessed as parent compound remaining measured after 1 hrs by UPLC-MS analysis; format: ADME, tissue-based; conditions: mouse lung, read-out: Stability
[4] = Metabolic stability in mouse kidney assessed as parent compound remaining measured after 1 hrs by UPLC-MS analysis; format: ADME, tissue-based; conditions: read-out: Stability
[5] = test system: Escherichia coli; test: Antibacterial activity against wild type Escherichia coli ATCC 35218 assessed as reduction in microbial growth incubated for 20 to 22 hrs by CLSI based analysis; format: functional; conditions: time 20-22 hrs
[6] = test system: Escherichia coli; test: Antibacterial activity against Escherichia coli ATCC 35218 harboring SbmA assessed as reduction in microbial growth incubated for 20 to 22 hrs by CLSI based analysis; format: functional; conditions: time 20-22 hrs
[7] = test system: Klebsiella pneumoniae; test: Antibacterial activity against wild type Klebsiella pneumoniae ATCC 13883 assessed as reduction in microbial growth incubated for 20 to 22 hrs by CLSI based analysis; format: functional; conditions: time 20-22 hrs
[8] = test system: Klebsiella pneumoniae; test: Antibacterial activity against Klebsiella pneumoniae ATCC 13883 harboring SbmA assessed as reduction in microbial growth incubated for 20 to 22 hrs by CLSI based analysis; format: functional; conditions: time 20-22 hrs
[9] = test system: Acinetobacter baumannii; test: Antibacterial activity against wild type Acinetobacter baumannii ATCC 19606 assessed as reduction in microbial growth incubated for 20 to 22 hrs by CLSI based analysis; format: functional; conditions: time 20-22 hrs
[10] = test system: Escherichia coli; test: Antibacterial activity against Escherichia coli ATCC 35218 assessed as reduction in microbial growth incubated for 20 to 22 hrs by CLSI based analysis; format: functional; conditions: time 20-22 hrs

Row | MIC [10] [µg/mL] | SMILES | remaining at 4 h [1] [%] | remaining at 4 h [2] [%] | remaining at 1 h [3] [%] | remaining at 1 h [4] [%] | MIC [5] [µg/mL] | MIC [6] [µg/mL] | MIC [7] [µg/mL] | MIC [8] [µg/mL] | MIC [9] [µg/mL]
1 | – | CO[C@@H](CNC(=O)[C@H](NC(=O)[C@H](O)[C@H](C)O)[C@H](O)c1cncn1C)[C@H](O)[C@H](O)C(=O)N(C)[C@@H](Cc1ccc(F)cc1)C(=O)NCC(=O)N[C@H](C(=O)N[C@@H](CO)C(=O)N[C@H](C(=O)N[C@H](C(=O)N[C@@H](CCC(=O)NCc1cc(=O)c(O)cn1O)C(=O)NCCN)C(C)(C)C)C(C)(C)O)C(C)(C)O | 41 | 75 | 88 | 61 | 0.01 | 4 | 0.12 | > 32 | 1
2 | – | CO[C@@H](CNC(=O)[C@H](NC(=O)[C@H](O)[C@H](C)O)[C@H](O)c1cncn1C)[C@H](O)[C@H](O)C(=O)N(C)[C@@H](Cc1ccc(F)cc1)C(=O)NCC(=O)N[C@H](C(=O)N[C@@H](CO)C(=O)N[C@H](C(=O)N[C@H](C(=O)N[C@@H](CO)C(=O)NCc1cccc(O)c1O)C(C)(C)C)C(C)(C)O)C(C)(C)O | 0 | 0 | 0 | 11 | 0.06 | – | 0.5 | – | 0.5
3 | 32 | CO[C@@H](CNC(=O)[C@H](NC(=O)[C@H](O)[C@H](C)O)[C@H](O)c1cncn1C)[C@H](O)[C@H](O)C(=O)N(C)[C@@H](Cc1ccccc1)C(=O)NCC(=O)N[C@H](C(=O)N[C@@H](CO)C(=O)N[C@H](C(=O)N[C@@H](CC(C)C)C(=O)O)C(C)(C)O)C(C)(C)O | – | – | – | – | – | – | – | – | –
4 | > 64 | CO[C@@H](CNC(=O)[C@H](NC(=O)[C@H](O)[C@H](C)O)[C@H](O)c1cncn1C)[C@H](O)[C@H](O)C(=O)N(C)[C@@H](Cc1ccccc1)C(=O)NCC(=O)N[C@H](C(=O)N[C@@H](CO)C(=O)N[C@H](C(=O)O)C(C)(C)O)C(C)(C)O | – | – | – | – | – | – | – | – | –
5 | > 64 | CO[C@@H](CNC(=O)[C@H](NC(=O)[C@H](O)[C@H](C)O)[C@H](O)c1cncn1C)[C@H](O)[C@H](O)C(=O)N(C)[C@@H](Cc1ccccc1)C(=O)O | – | – | – | – | – | – | – | – | –
6 | – | CO[C@@H](CNC(=O)[C@H](NC(=O)[C@H](O)[C@H](C)O)[C@H](O)c1cncn1C)[C@H](O)[C@H](O)C(=O)N(C)[C@@H](Cc1ccccc1)C(=O)NCC(=O)N[C@H](C(=O)N[C@@H](CO)C(=O)N[C@H](C(=O)N[C@H](C(=O)N[C@@H](CO)C(=O)NCc1cc(=O)c(O)cn1O)C(C)(C)C)C(C)(C)O)C(C)(C)O | 84 | 73 | 84 | 99 | < 0.01 | 0.5 | 0.03 | > 32 | 0.5
7 | – | CO[C@@H](CNC(=O)[C@H](NC(=O)[C@H](O)[C@H](C)O)[C@H](O)c1cncn1C)[C@H](O)[C@H](O)C(=O)N(C)[C@@H](Cc1ccccc1)C(=O)NCC(=O)N[C@H](C(=O)N[C@@H](CO)C(=O)N[C@H](C(=O)N[C@H](C(=O)N[C@@H](CO)C(=O)N[C@@H](CN)C(=O)NCc1cc(=O)c(O)cn1O)C(C)(C)C)C(C)(C)O)C(C)(C)O | 83 | 75 | 87 | 93 | 0.02 | 4 | 0.25 | > 32 | 0.25
8 | – | CO[C@@H](CNC(=O)[C@H](NC(=O)[C@H](O)[C@H](C)O)[C@H](O)c1cncn1C)[C@H](O)[C@H](O)C(=O)N(C)[C@@H](Cc1ccccc1)C(=O)NCC(=O)N[C@H](C(=O)N[C@@H](CO)C(=O)N[C@H](C(=O)N[C@@H](CC(C)C)C(=O)N[C@@H](CO)C(=O)N[C@@H](CCC(=O)NCc1cc(=O)c(O)cn1O)C(=O)O)C(C)(C)O)C(C)(C)O | 0 | 0 | 1 | 22 | 0.03 | 0.12 | 0.25 | 8 | 0.5
9 | – | CC[C@H](C)[C@H](NC(=O)[C@@H](NC(=O)[C@H](CO)NC(=O)[C@@H](NC(=O)CNC(=O)[C@H](Cc1ccccc1)N(C)C(=O)[C@@H](O)[C@@H](O)[C@H](CNC(=O)[C@H](NC(=O)[C@H](O)[C@H](C)O)[C@H](O)c1cncn1C)OC)C(C)(C)O)C(C)(C)O)C(=O)N[C@@H](CO)C(=O)N[C@@H](CCC(=O)NCc1cc(=O)c(O)cn1O)C(=O)O | 42 | 33 | 73 | 84 | 0.03 | 0.25 | 0.12 | 32 | 0.5
10 | – | CO[C@@H](CNC(=O)[C@H](NC(=O)[C@H](O)[C@H](C)O)[C@H](O)c1cncn1C)[C@H](O)[C@H](O)C(=O)N(C)[C@@H](Cc1ccccc1)C(=O)N[C@@H](C)C(=O)N[C@H](C(=O)N[C@@H](CO)C(=O)N[C@H](C(=O)N[C@H](C(=O)N[C@@H](CO)C(=O)NCc1cc(=O)c(O)cn1O)C(C)(C)C)C(C)(C)O)C(C)(C)O | 75 | 85 | 91 | 85 | 0.06 | 1 | 1 | > 32 | 1
11 | – | CO[C@@H](CNC(=O)[C@H](NC(=O)[C@H](O)[C@H](C)O)[C@H](O)c1cncn1C)[C@H](O)[C@H](O)C(=O)N(C)[C@@H](Cc1ccc(F)cc1)C(=O)NCC(=O)N[C@H](C(=O)N[C@@H](CO)C(=O)N[C@H](C(=O)N[C@H](C(=O)N[C@@H](CCC(=O)NCc1cc(=O)c(O)cn1O)C(=O)O)C(C)(C)C)C(C)(C)O)C(C)(C)O | 101 | 86 | 101 | 92 | 0.01 | 0.25 | 0.12 | > 32 | 0.25
12 | > 64 | CO[C@@H](CNC(=O)[C@H](NC(=O)[C@H](O)[C@H](C)O)[C@H](O)c1cncn1C)[C@H](O)[C@H](O)C(=O)N(C)[C@@H](Cc1ccccc1)C(=O)NCC(=O)N[C@H](C(=O)N[C@@H](CO)C(=O)O)C(C)(C)O | – | – | – | – | – | – | – | – | –
13 | – | CO[C@@H](CNC(=O)[C@H](NC(=O)[C@H](O)[C@H](C)O)[C@H](O)c1cncn1C)[C@H](O)[C@H](O)C(=O)N(C)[C@@H](Cc1ccc(F)cc1)C(=O)NCC(=O)N[C@H](C(=O)N[C@@H](CO)C(=O)N[C@H](C(=O)N[C@H](C(=O)N[C@@H](CO)C(=O)NCc1ccc(O)c(O)c1)C(C)(C)C)C(C)(C)O)C(C)(C)O | 0 | 0 | 0 | 6 | 0.03 | – | 0.25 | – | 0.5
14 | – | CO[C@@H](CNC(=O)[C@H](NC(=O)[C@H](O)[C@H](C)O)[C@H](O)c1cncn1C)[C@H](O)[C@H](O)C(=O)N(C)[C@@H](Cc1ccccc1)C(=O)NCC(=O)N[C@H](C(=O)N[C@@H](CO)C(=O)N[C@H](C(=O)N[C@H](C(=O)N[C@@H](CO)C(=O)N[C@H](CCC(=O)NCc1cc(=O)c(O)cn1O)C(=O)O)C(C)(C)C)C(C)(C)O)C(C)(C)O | 67 | 77 | 89 | 100 | < 0.01 | 1 | 0.03 | 32 | 0.5
